The species entered for the experiment is Homo sapiens. Kind of experiment: Concentration required for the inhibition of collagen induced platelet aggregation; inactive. The experiment is classed as functional.

Usually IC50 stands for the midpoint of a concentration-inhibition curve. Higher therefore signals weaker potency in that assay.

Molecule `O=C(O)COc1ccc2c(c1)CC[C@@H]1[C@@H](C#C[C@@H](O)C3CCCCC3)[C@H](O)C[C@H]21` yielded an IC50 of more than 10 µM.

For the origin of these results see ChEMBL document CHEMBL1125946, “Total synthesis of a homochiral arene-fused prostacyclin analog” (Bioorg Med Chem Lett, 1991).
